Experimental findings from US20080045492A1, “Mitotic Kinesin Inhibitors” (priority 2004, published 2008) are described below.

pIC50: −log10 of the molar value. Read-outs that look alike come from different tables or passages of the source.

One may read the pIC50 as the negative decadic logarithm of the IC50, by convention in mol/L.

The experiment has as its target T1, human KSP motor domain (KSP(367H)) (Homo sapiens, UniProt P52732).
T1 construct: were used to amplify the motor domain and the neck linker region; made in house; host or cells: E. coli BL21 (DE3), pRSETa
T1 sequence (P52732 18-359 limits assumed): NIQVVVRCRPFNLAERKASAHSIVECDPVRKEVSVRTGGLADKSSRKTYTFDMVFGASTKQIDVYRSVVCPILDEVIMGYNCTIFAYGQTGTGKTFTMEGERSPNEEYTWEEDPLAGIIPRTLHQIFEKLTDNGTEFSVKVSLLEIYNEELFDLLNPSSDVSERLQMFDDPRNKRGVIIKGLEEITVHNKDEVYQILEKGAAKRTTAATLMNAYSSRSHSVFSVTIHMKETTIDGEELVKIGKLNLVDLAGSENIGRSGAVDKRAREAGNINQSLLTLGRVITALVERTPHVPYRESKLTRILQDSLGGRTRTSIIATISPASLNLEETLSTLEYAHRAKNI
Kind of experiment: Kinesin ATPase In Vitro Assay. Type of experiment: biochemical. As for the experimental part: I. Kinesin ATPase In Vitro Assay
The N-terminal primer 5′-[…] (SEQ. ID. NO.: 1) and the C-terminal primer 5′-[…] […] […] The PCR products were digested with AseI and XhoI, ligated into the NdeI/XhoI digestion product of pRSETa (Invitrogen) and transformed into E. coli BL21 (DE3).
Cells were grown at 37° C. to an OD600 of 0.5. After cooling the culture to room temperature expression of KSP was induced with 100 μM IPTG and incubation was continued overnight. Cells were pelleted by centrifugation and washed once with ice-cold PBS. Pellets were flash-frozen and stored −80° C.
Cell pellets were thawed on ice and resuspended in lysis buffer (50 mM K-HEPES, pH 8.0, 250 mM KCl, 0.1% Tween, 10 mM imidazole, 0.5 mM Mg-ATP, 1 mM PMSF, 2 mM benzimidine, 1× complete protease inhibitor cocktail (Roche)). Cell suspensions were incubated with 1 mg/ml lysozyme and 5 mM β-mercaptoethanol on ice for 10 minutes, followed by sonication (3×30 sec). All subsequent procedures were performed at 4° C. Lysates were centrifuged at 40,000×g for 40 minutes. Supernatants were diluted and loaded onto an SP Sepharose column (Pharmacia, 5 ml cartridge) in buffer A (50 mM K-HEPES, pH 6.8, 1 mM MgCl2, 1 mM EGTA, 10 μM Mg-ATP, 1 mM DTT) and eluted with a 0 to 750 mM KCl gradient in buffer A. Fractions containing KSP were pooled and incubated with Ni-NTA resin (Qiagen) for one hour. The resin was washed three times with buffer B (Lysis buffer minus PMSF and protease inhibitor cocktail), followed by three 15-minute incubations and washes with buffer B. Finally, the resin was incubated and washed for 15 minutes three times with buffer C (same as buffer B except for pH 6.0) and poured into a column. KSP was eluted with elution buffer (identical to buffer B except for 150 mM KCl and 250 mM imidazole). KSP-containing fractions were pooled, made 10% in sucrose, and stored at −80° C.
Microtubules are prepared from tubulin isolated from bovine brain. Purified tubulin (>97% MAP-free) at 1 mg/ml is polymerized at 37° C. in the presence of 10 μM paclitaxel, 1 mM DTT, 1 mM GTP in BRB80 buffer (80 mM K-PIPES, 1 mM EGTA, 1 mM MgCl2 at pH 6.8). The resulting microtubules are separated from non-polymerized tubulin by ultracentrifugation and removal of the supernatant. The pellet, containing the microtubules, is gently resuspended in 10 μM paclitaxel, 1 mM DTT, 50 μg/ml ampicillin, and 5 μg/ml chloramphenicol in BRB80.
The kinesin motor domain is incubated with microtubules, 1 mM ATP (1:1 MgCl2: Na-ATP), and compound at 23° C. in buffer containing 80 mM K-HEPES (pH 7.0), 1 mM EGTA, 1 mM DTT, 1 mM MgCl2, and 50 mM KCl. […] Free phosphate from the ATP hydrolysis reaction is measured via a quinaldine red/ammonium molybdate assay by adding a […] of quench C (e.g., to a mixture of 40 μl reaction volume+40 μl stop buffer is then added 120 μl quench C). […] Quench C is a 2:1 ratio of quench A:quench B The reaction is incubated for 5-10 minutes at 23° C., and the absorbance of the phospho-molybdate complex is measured at 540 nm.

The mark [1] stands for this setting: kinesin motor domain with microtubules, 1 mM ATP, 23° C., read-out: IC50.

For `CC(=O)C1=NN(c2cc(C)ccc2F)CC1(CCCN(C)C)c1ccccc1` (racemic) [Compound 2-3, (±)-(1-[4-[3-(dimethylamino)propyl]-1-(2-fluoro-5-methylphenyl)-4-phenyl-4,5-dihydro-1H-pyrazol-3-yl]ethanone], the pIC50 was at least 4.30.

For the molecule `CCOC(=O)C1=NN(c2cc(F)ccc2F)C(N2CCOCC2)C1c1ccccc1` (racemic) [Compound 44, (±)-Ethyl 1-(2,5-difluorophenyl)-5-morpholin-4-yl-4-phenyl-4,5-dihydro-1H-pyrazole-3-carboxylate], the pIC50 under setting [1] was at least 4.30.

On to `CON(C)C(=O)C1=NN(c2cc(C)ccc2F)CC1(CCCO)c1ccccc1` (racemic) [Compound 2-1, (±)-1-(2-fluoro-5-methylphenyl)-4-(3-hydroxypropyl)-N-methoxy-N-methyl-4-phenyl-4,5-dihydro-1H-pyrazole-3-carboxamide], for which, under setting [1], the pIC50 is at least 4.30.

For the molecule `CC(=O)C1=NN(c2cccc(F)c2)CC1c1ccccc1` (racemic) [Compound 3-5, (±)-1-[1-(3-fluorophenyl)-4-phenyl-4,5-dihydro-1H-pyrazol-3-yl]ethanone], the pIC50 under setting [1] was at least 4.30.

Take `CC(=O)c1nn(-c2cc(F)ccc2F)cc1-c1ccccc1` [Compound 4-7, 1-[1-(2,5-difluorophenyl)-4-phenyl-1H-pyrazol-3-yl]ethanone]: under setting [1], the pIC50 was at least 4.30.
